In brackets after ≈: the same amount, converted by molar mass. Activity calls are given as the source filed them. No cut-off for these calls is given here.
How the values were obtained:
[1] = system: Human alphaherpesvirus 2; assay: Antiviral activity against Herpes simplex virus 2 assessed as inhibition of virus-induced cytopathic effect after 72 hrs by two-fold dilution method; type: functional; settings: Human alphaherpesvirus 2, 72 h
[2] = system: Equine rhinovirus; assay: Antiviral activity against Equine rhinovirus assessed as inhibition of virus-induced cytopathic effect after 48 hrs by two-fold dilution method
[3] = system: Human alphaherpesvirus 2; assay: Antiviral activity against Herpes simplex virus 2 assessed as inhibition of virus-induced cytopathic effect at 50 ug/ml after 72 hrs by two-fold dilution method; type: functional, organism-based
[4] = system: rhinovirus B14; assay: Antiviral activity against Human rhinovirus 14 assessed as inhibition of virus-induced cytopathic effect at 37 degC after 72 hrs by two-fold dilution method; type: functional; settings: Rhinovirus B
[5] = Antiviral activity against Human rhinovirus 17 assessed as inhibition of virus-induced cytopathic effect at 37 degC after 72 hrs by two-fold dilution method; type: functional, Human rhinovirus B17; settings: Rhinovirus B
[6] = system: unidentified influenza virus; assay: Antiviral activity against Parainfluenza virus assessed as inhibition of virus-induced cytopathic effect at 37 degC after 72 hrs by two-fold dilution method; type: functional
[7] = system: Respiratory syncytial virus; assay: Antiviral activity against Respiratory syncytial virus assessed as inhibition of virus-induced cytopathic effect at 37 degC after 72 hrs by two-fold dilution method; type: functional; settings: human respiratory syncytial virus
[8] = system: Human alphaherpesvirus 1; assay: Antiviral activity against Herpes simplex virus 1 assessed as inhibition of virus-induced cytopathic effect at 37 degC after 72 hrs by two-fold dilution method; type: functional; settings: Human alphaherpesvirus 1, 72 h
[9] = system: Human alphaherpesvirus 1; assay: Antiviral activity against Herpes simplex virus 1 Sheely assessed as inhibition of virus-induced cytopathic effect at 37 degC after 72 hrs by two-fold dilution method; type: functional; settings: Human alphaherpesvirus 1, Sheely
[10] = system: Human alphaherpesvirus 2; assay: Antiviral activity against Herpes simplex virus 2 Curtis assessed as inhibition of virus-induced cytopathic effect at 37 degC after 72 hrs by two-fold dilution method; type: functional; settings: Human alphaherpesvirus 2, Curtis
[11] = system: rhinovirus A2; assay: Antiviral activity against Human rhinovirus 2 assessed as inhibition of virus-induced cytopathic effect at 37 degC after 72 hrs by two-fold dilution method; type: functional; settings: Rhinovirus A
[12] = system: Influenza A virus; assay: Antiviral activity against Influenza A2 virus Jap 170 infected in ferret trachea assessed as reduction in viral yield at 200 ug/ml after 3 days followed by compound-washout measured after 24 hrs by chick embryo-based hemagglutination titration method relative to control v; type: functional; set-up: scale not given: the % may be the effect or the level left
[13] = system: Influenza A virus; assay: Antiviral activity against Influenza A2 virus Jap 170 infected in ferret trachea assessed as reduction in viral yield at 400 ug/ml after 3 days followed by compound-washout measured after 24 hrs by chick embryo-based hemagglutination titration method relative to control; type: functional; set-up: scale not given: the % may be the effect or the level left
[14] = system: Equine rhinovirus; assay: Antiviral activity against Equine rhinovirus infected in rhesus monkey trachea assessed as reduction in viral yield at 200 ug/ml after 3 days followed by compound-washout measured after 24 hrs by human CATR cell-based titration method relative to control; set-up: scale not given: the % may be the effect or the level left
[15] = system: Equine rhinovirus; assay: Antiviral activity against Equine rhinovirus infected in rhesus monkey trachea assessed as reduction in viral yield at 400 ug/ml after 3 days followed by compound-washout measured after 24 hrs by human CATR cell-based titration method relative to control; set-up: scale not given: the % may be the effect or the level left
[16] = system: Equine rhinovirus; assay: Antiviral activity against Equine rhinovirus infected in rhesus monkey trachea assessed as reduction in viral yield at 100 ug/ml after 3 days followed by compound-washout measured after 24 hrs by human CATR cell-based titration method relative to control v; set-up: scale not given: the % may be the effect or the level left

CCC(=O)C(CCCCCCOc1ccc(F)cc1)C(=O)CC
MIC [1]: 3 µg/mL (≈ 9.3 µM) | MIC [2]: 3 µg/mL (≈ 9.3 µM)

CCC(=O)C(CCCCCCOc1ccc(OC)cc1)C(=O)CC
MIC [1]: 25 µg/mL (≈ 74.7 µM) | MIC [2]: 6 µg/mL (≈ 17.9 µM)

CCC(=O)C(CCCCCCOc1ccccc1Cl)C(=O)CC
MIC [1]: 6 µg/mL (≈ 17.7 µM) | MIC [2]: 3 µg/mL (≈ 8.85 µM)

CCC(=O)C(CCCCCCOc1cccc([N+](=O)[O-])c1)C(=O)CC
inhibition [3]: inactive | MIC [2]: 3 µg/mL (≈ 8.59 µM)

CCC(=O)C(CCCCCCCCCCOc1ccc(OC)cc1Cl)C(=O)CC
MIC [1]: 6 µg/mL (≈ 14.1 µM) | MIC [2]: 12 µg/mL (≈ 28.2 µM)

CCC(=O)C(CCOCCOc1ccc(OC)cc1Cl)C(=O)CC
MIC [1]: 12 µg/mL (≈ 33.6 µM) | MIC [2]: 25 µg/mL (≈ 70.1 µM)

CCC(=O)C(CCCCCCOc1ccc(OC)cc1Cl)C(=O)CC [ARILDONE]
MIC [1]: 6 µg/mL (≈ 16.3 µM) | MIC [4]: 1.5 µg/mL (≈ 4.07 µM) | MIC [5]: 3 µg/mL (≈ 8.13 µM) | MIC [6]: 1.5 µg/mL (≈ 4.07 µM) | MIC [7]: 3 µg/mL (≈ 8.13 µM) | MIC [8]: 6 µg/mL (≈ 16.3 µM) | MIC [9]: 6 µg/mL (≈ 16.3 µM) | MIC [10]: 6 µg/mL (≈ 16.3 µM) | MIC [11]: 0.7 µg/mL (≈ 1.9 µM) | Activity [12]: 90% | Activity [13]: 99.9% | MIC [2]: 1.5 µg/mL (≈ 4.07 µM) | Activity [14]: 98% | Activity [15]: 99.5% | Activity [16]: 70%

Nc1ccn([C@@H]2O[C@H](CO)[C@@H](O)[C@@H]2O)c(=O)n1 [CYTARABINE]
MIC [9]: < 3 µg/mL | MIC [10]: < 3 µg/mL

CCOC(=O)C(CCCCCCOc1ccc(OC)cc1Cl)C(C)=O (centres undefined)
inhibition [3]: inactive | MIC [2]: 6 µg/mL (≈ 16.2 µM)

CCC(=O)C(CCCCCCCOc1ccc(OC)cc1Cl)C(=O)CC
MIC [1]: 6 µg/mL (≈ 15.7 µM) | MIC [2]: 3 µg/mL (≈ 7.83 µM)

CCC(=O)C(CCCCCCOc1ccc(OC)cc1Br)C(=O)CC
MIC [1]: 6 µg/mL (≈ 14.5 µM) | MIC [2]: 3 µg/mL (≈ 7.26 µM)

CCC(=O)C(CCCCCCOc1cc(Cl)c(OC)cc1Cl)C(=O)CC
MIC [1]: 6 µg/mL (≈ 14.9 µM) | MIC [2]: 3 µg/mL (≈ 7.44 µM)

CCC(=O)C(CCCCCCOc1ccc(OCCO)cc1Cl)C(=O)CC
MIC [1]: 1.5 µg/mL (≈ 3.76 µM) | MIC [2]: 3 µg/mL (≈ 7.52 µM)

CCC(=O)C(CCCCCOc1ccc(OC)cc1Cl)C(=O)CC
MIC [1]: 6 µg/mL (≈ 16.9 µM) | MIC [2]: 6 µg/mL (≈ 16.9 µM)

CCC(=O)C(CCCCCCOc1c(I)cc(I)cc1I)C(=O)CC
MIC [1]: 6 µg/mL (≈ 8.8 µM) | MIC [2]: 12 µg/mL (≈ 17.6 µM)

Nc1ncnc2c1ncn2[C@@H]1O[C@H](CO)[C@@H](O)[C@@H]1O [VIDARABINE]
MIC [9]: 12 µg/mL (≈ 44.9 µM) | MIC [10]: 12 µg/mL (≈ 44.9 µM)

CCC(=O)C(CCCCCCOc1ccc(O)cc1)C(=O)CC
MIC [1]: 3 µg/mL (≈ 9.36 µM) | MIC [2]: 12 µg/mL (≈ 37.4 µM)

CCC(=O)C(CCCCCCOc1ccc2c(c1)OCO2)C(=O)CC
inhibition [3]: inactive | MIC [2]: 3 µg/mL (≈ 8.61 µM)

CCC(=O)C(CCCCCCOc1ccc(OCCN(CC)CC)cc1)C(=O)CC
inhibition [3]: inactive | MIC [2]: 25 µg/mL (≈ 59.6 µM)

CCC(=O)C(CCCCCCCCCOc1ccc(OC)cc1Cl)C(=O)CC
MIC [1]: 12 µg/mL (≈ 29.2 µM) | MIC [2]: 6 µg/mL (≈ 14.6 µM)

CCC(=O)C(CCCCCCOc1ccc(OC(C)=O)cc1Cl)C(=O)CC
inhibition [3]: inactive | MIC [2]: 12 µg/mL (≈ 30.2 µM)

CCC(=O)C(CCCCCCOc1ccc(C(=O)O)cc1)C(=O)CC
inhibition [3]: inactive | MIC [2]: 6 µg/mL (≈ 17.2 µM)

CCC(=O)C(CCCCCCOc1cccc(C(F)(F)F)c1)C(=O)CC
inhibition [3]: inactive

CCC(=O)C(CCCCCCOc1ccc(SC)cc1)C(=O)CC
inhibition [3]: inactive | MIC [2]: 3 µg/mL (≈ 8.56 µM)

CCC(=O)C(CCCCCCOc1ccc(S(N)(=O)=O)cc1)C(=O)CC
MIC [1]: 12 µg/mL (≈ 31.3 µM)

CCC(=O)C(CCCCOc1ccc(OC)cc1Cl)C(=O)CC
inhibition [3]: inactive

CCC(=O)C(CCCCCCOc1ccc([N+](=O)[O-])cc1Cl)C(=O)CC
MIC [1]: 3 µg/mL (≈ 7.82 µM) | MIC [2]: 3 µg/mL (≈ 7.82 µM)

CCC(=O)C(CCCCCCOc1cccc(I)c1)C(=O)CC
MIC [1]: 6 µg/mL (≈ 13.9 µM) | MIC [2]: 6 µg/mL (≈ 13.9 µM)

CCC(=O)C(CCCCCCOc1ccc(I)cc1)C(=O)CC
MIC [1]: 6 µg/mL (≈ 13.9 µM) | MIC [2]: 3 µg/mL (≈ 6.97 µM)

CCC(=O)C(CCCCCCOc1ccc(Cl)cc1)C(=O)CC
inhibition [3]: inactive | MIC [2]: 3 µg/mL (≈ 8.85 µM)

CCC(=O)C(CCCCCCOc1ccc(CC)cc1)C(=O)CC
MIC [1]: 12 µg/mL (≈ 36.1 µM) | MIC [2]: 6 µg/mL (≈ 18 µM)

CCC(=O)C(CCCCCCOc1ccc(OC(=O)c2ccc(OC)cc2)cc1)C(=O)CC
inhibition [3]: inactive | MIC [2]: 6 µg/mL (≈ 13.2 µM)

From ChEMBL document CHEMBL3244039, “Antiviral activity of some beta-diketones. 2. Aryloxy alkyl diketones. In vitro activity against both RNA and DNA viruses” (1977)
